Experimental data: PMC6442460 (Journal of chemical information and modeling, 2018)
Like-named read-outs stand apart in the source and are kept apart here.

Legend:
[1] = target: T1, ECL (Erythrina cristagalli lectin) (Erythrina crista-galli, UniProt P83410); conditions: cited from earlier work
T1 sequence (P83410 1-239): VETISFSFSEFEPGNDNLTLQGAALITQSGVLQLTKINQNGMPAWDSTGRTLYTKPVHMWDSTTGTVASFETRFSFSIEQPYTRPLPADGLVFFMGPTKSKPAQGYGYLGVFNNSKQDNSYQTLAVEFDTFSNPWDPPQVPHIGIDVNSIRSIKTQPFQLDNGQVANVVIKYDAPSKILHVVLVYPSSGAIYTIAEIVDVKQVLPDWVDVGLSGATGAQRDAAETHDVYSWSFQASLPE

[2] = target: T1, ECL (Erythrina cristagalli lectin); conditions: cited from earlier work; remark: listed apart in the source
[3] = target: T1, ECL (Erythrina cristagalli lectin); conditions: cited from earlier work; remark: listed apart in the source
[4] = target: T1, ECL (Erythrina cristagalli lectin); test: Protein BLI inhibition; format: binding; conditions: for ΔG: binding free energy from BLI KD, standard deviations in parentheses; for affinity for ECL (result in words): BLI
[5] = target: T1, ECL (Erythrina cristagalli lectin); test: Isothermal titration calorimetry; format: binding; conditions: relative to 1

| Structure (SMILES) | inhibitory power relative to D-Gal (result in words) [1] | binding in glycan array screening of ECL [3] | ΔG [4] | further results |
| --- | --- | --- | --- | --- |
| O=C[C@@H](O)[C@H](O)[C@H](O)CO [D-Ara] | poor inhibitors | – | – | – |
| OC[C@H]1OC(O)[C@H](O)[C@@H](O)[C@H]1O (stereo partly drawn) [D-Gal, reference compound] | – | – | – | reference ΔG ([2]; ITC at 25 °C): –4.0 (<0.1) kcal/mol |
| CC(=O)N[C@H]1C(O)O[C@H](CO)[C@@H](O)[C@@H]1O (stereo partly drawn) [D-GlcNAc] | poor inhibitors | – | – | – |
| OC[C@H]1OC(O)[C@H](O)[C@@H](O)[C@@H]1O (stereo partly drawn) [D-Glc] | poor inhibitors | – | – | – |
| C[C@@H]1OC(O)[C@@H](O)[C@H](O)[C@@H]1O (stereo partly drawn) [L-Fuc] | poor inhibitors | – | – | – |
| OC[C@H]1O[C@@H](O[C@H]2[C@H](O)[C@@H](O)[C@H](O)O[C@@H]2CO)[C@H](O)[C@@H](O)[C@H]1O [ligand 1, lactose] | – | nonbinders | –4.83 (0.04) kcal/mol | reference ΔG ([2]; ITC at 25 °C): –4.8 (<0.1) kcal/mol; reference ΔG ([2]; ITC at 27 °C): –4.9 (0.2) kcal/mol |
| OC[C@H]1O[C@@H](O[C@H]2[C@H](O)[C@H](O)C(O)O[C@@H]2CO)[C@H](O)[C@@H](O)[C@H]1O (stereo partly drawn) [ligand 2, epi-lactose] | – | – | –5.08 (0.02) kcal/mol | – |
| CC(=O)N[C@H]1C(O)O[C@H](CO)[C@@H](O[C@@H]2O[C@H](CO)[C@H](O)[C@H](O)[C@H]2O)[C@@H]1O (stereo partly shown) [ligand 3, N-acetyllactosamine] | – | binders | –5.66 (0.04) kcal/mol | reference ΔG ([2]; ITC at 27 °C): –5.5 (0.1) kcal/mol; fold higher affinity of ECL [5]: about 3 fold |
| CC(=O)N[C@H]1[C@H](O[C@H]2[C@H](O)[C@@H](NC(C)=O)C(O)O[C@@H]2CO)O[C@H](CO)[C@H](O)[C@@H]1O (stereo partly shown) [ligand 4, N,N-diacetyllactosamine] | – | binders | – | – |
| C[C@@H]1O[C@@H](O[C@H]2[C@H](O[C@H]3[C@H](O)[C@@H](O)C(O)O[C@@H]3CO)O[C@H](CO)[C@H](O)[C@@H]2O)[C@@H](O)[C@H](O)[C@@H]1O (stereo partly shown) [ligand 5, fucosylated lactose] | – | nonbinders | –5.04 (0.06) kcal/mol | reference ΔG ([2]; ITC at 25 °C): –4.8 (<0.1) kcal/mol |
| CC(=O)N[C@H]1C(O)O[C@H](CO)[C@@H](O[C@@H]2O[C@H](CO)[C@H](O)[C@H](O)[C@H]2O[C@@H]2O[C@@H](C)[C@@H](O)[C@@H](O)[C@@H]2O)[C@@H]1O (stereo partly shown) [ligand 6, fucosylated N-acetyllactosamine] | – | binders | –6.21 (0.14) kcal/mol | – |
| O=C[C@H](O)[C@@H](O)[C@H](O[C@@H]1O[C@H](CO)[C@@H](O)[C@H](O)[C@H]1O)[C@H](O)CO [ligand 7, cellobiose] | – | – | – | affinity for ECL (result in words) [4]: Neither cellobiose (Glcβ1–4Glcβ, 7) nor maltose (Glcα1–4Glcβ, 8) shows any measurable affinity |
| OC[C@H]1O[C@H](O[C@H]2[C@H](O)[C@@H](O)[C@H](O)O[C@@H]2CO)[C@H](O)[C@@H](O)[C@@H]1O [ligand 8, maltose] | – | – | – | affinity for ECL (result in words) [4]: Neither cellobiose (Glcβ1–4Glcβ, 7) nor maltose (Glcα1–4Glcβ, 8) shows any measurable affinity |
